Assay results published in publication PMC12177760, “In Silico Discovery of a Novel Antiviral Scaffold for SARS-CoV‑2 Targeting the Spike Glycoprotein through the Fatty Acid Binding Pocket” (ACS Omega, 2025).
pEC50: −log10 of the molar value.

Experiments:
[1] = target: S-ACE2 interaction (SARS-CoV-2 S protein trimer, Wuhan strain, with biotinylated-ACE2) (Severe acute respiratory syndrome coronavirus 2, UniProt P0DTC2); test: biochemical; format: binding; settings: for inhibition of the S-ACE2 interaction: 200 μM
[2] = test system: SARS-CoV-2 original Wuhan strain (INMI1 P4) in Vero E6 cells; test: microbe, parasite or virus in culture; format: cell-based; settings: for inhibition at 22 µM: Severe acute respiratory syndrome coronavirus 2, Vero C1008; for inhibition at 22 µM / inhibition at 33 µM: read-out: inhibition of viral induced CPE; for inhibition at 33 µM: Severe acute respiratory syndrome coronavirus 2, Vero C1008, 72 h
[3] = test system: RBD-ACE2 binding; settings: ref not given, cited from earlier work
[4] = test system: SARS-CoV-2 Wuhan strain; format: cell-based
[5] = test system: SARS-CoV-2 Wuhan strain; format: cell-based; remark: listed apart in the source
[6] = in vitro; settings: African green monkey
[7] = test system: Vero E6 cells; settings: 200 μM

With `CCn1c2ccccc2c2cc(NC(=O)c3ccc(OCC(N)=O)cc3)ccc21` [compound 4] the inhibition at 200 µM [1] was 28% and the “reduction in viral induced CPE” value ([2]; 67 μM) was “over 10%”.

In the case of `CCCCC/C=C\C/C=C\CCCCCCCC(=O)O` [LA, linoleic acid, reference compound], the “inhibition of the RBD-ACE2 binding” value ([3]; 8.9 mM, in vitro assays) is given as 100% and the inhibition at 200 µM [1] is given as 84%.

With `CC(=O)c1ccc(N2CCN(Cn3nc4cc(C)c5ccccc5n4c3=S)CC2)cc1` [compound 1] the inhibition at 22 µM [2] was 10%.

Work on `Cc1cccc(OCC(=O)N2CC=C(c3c[nH]c4ccccc34)CC2)c1C` [compound 15] yielded an inhibition at 200 µM [1] of 20% and an inhibition at 22 µM [2] of 10%.

For `O=C(CCc1nc2ccccc2s1)N1CCC(CCc2ccc(O)cc2)CC1` [compound 9], the inhibition at 200 µM [1] was 20%.

In the case of `CS(=O)(=O)N1CCCc2cc(-c3csc(-c4cccc(C(N)=O)c4)n3)ccc21` [compound 7], the inhibition at 200 µM [1] was 20%.

For `CC(NC(=O)CCC(=O)N1CCN(c2ccccc2)CC1)c1ccc(-n2cncn2)cc1` (stereo not shown) [compound 31], the inhibition at 33 µM [2] was 8%.

For `Cc1nc(-c2ccc(C(C)NC(=O)CCC(=O)N3CCC(c4ccccc4)=N3)cc2)cs1` (stereo not shown) [compound 20], the inhibition at 33 µM [2] was 34%.

`N#Cc1ccc(C2(NC(=O)CCC(=O)N3CCC(c4ccccc4)=N3)CC2)cc1` [compound 35] gave an inhibition at 33 µM [2] of 16%.

`CC(OC(=O)CCC(=O)N1CCC(c2ccccc2)=N1)c1ccc(-n2cncn2)cc1` (stereo not shown) [compound 34] showed an inhibition at 33 µM [2] of 19%.

For `CC(c1ccc(-n2cncn2)cc1)N(C)C(=O)CCC(=O)N1CCC(c2ccccc2)=N1` (stereo not shown) [compound 36], the “PFU/mL, drug” value [4] was 2.49 × 10^7 PFU/mL, the “reduction of replication-capable lytic virions (TCID50)” value [4] was 90% and the inhibition at 33 µM [2] was 91%. The pEC50 ([2]; Severe acute respiratory syndrome coronavirus 2, Vero C1008, read-out: EC50 (inhibition of SARS-CoV-2-induced CPE)) was 6.54, the “detected viral genomic copies” value [5] was 16.9 copies/20 μL and the “reduction in number of viral genome copies in the supernatant” value ([5]; 33 μM) was 89%.

With `CC(NC(=O)CCC(=O)N1CCC(c2ccccc2)=N1)c1ccc(-n2cncn2)cc1` (stereo not shown) [compound 17] the inhibition at 200 µM [1] was ~20%, the “inhibition of the S-ACE2 interaction” value [1] was “surpassed PEA” and the “decrease in the number of infectious virions released” value [4] was 81%. For the same molecule, the CC50 [6] was 90 µM, the cytotoxicity [7] was “strong cytotoxicity” and the “reduction in viral induced CPE” value ([2]; 2.5 μM) was “over 10%”. The inhibition at 33 µM [2] was 23%.

For `O=C(Nc1nc(-c2ccc3c(c2)CCC3)cs1)c1ccc(CSc2nnc[nH]2)cc1` [compound 12], the “inhibition of the S-ACE2 interaction” value [1] was “surpassed PEA”.

For `CC(NC(=O)CCC(=O)N1CCC(c2ccccc2)=N1)c1ccc(-c2ccccc2)cc1` (stereo not shown) [compound 32], the inhibition at 33 µM [2] was 27%.

For `CCCCCCCCCCCCCCCC(=O)NCCO` [PEA, palmitoylethanolamide, reference compound], the “reduction of RBD binding with ACE2” value [3] is given as ~50% and the inhibition at 200 µM [1] is given as 17%.

In the case of `Cc1ccc(C(C)N(C)C(=O)CCC(=O)N2CCC(c3ccccc3)=N2)cc1` (stereo not shown) [compound 27], the “antiviral activity (qualitative structure-activity relationship, CPE)” value [2] was “activity maintained”.
